# Measured values from article PMC6058516, “Bispecific antibodies (anti-mPEG/anti-HER2) for active tumor targeting of docetaxel (DTX)-loaded mPEGylated nanocarriers to enhance the chemotherapeutic efficacy of HER2-overexpressing tumors” (Drug Delivery, 2018).
# Legend:
# [1] = tested on: MCF-7/HER2; assay: Cell viability MTT assay; assay type: cell-based; conditions: Homo sapiens, MCF7
# Procedure: (§1) Cell viabilities of the three BC cell lines of MCF-7, MCF-7/HER2, and SKBR-3 treated with Tynen®, the LsbMDDs, DNS-LsbMDDs, and HER2-LsbMDDs were evaluated by an MTT assay. Cells were seeded at a density of 5 × 10^4 cells per well in 24-well plates and incubated for 24 h at 37 °C with 5% CO2. Then, they were treated with different concentrations of the formulations for 4 h under the same conditions. After incubation for 48 h, 50 μL of MTT (6 mg/mL) was added to each well for 3 h. The medium was removed and 200 μL of DMSO was added to each well and gently shaken to dissolve any purple formazan crystal formations. The absorbance of each well was measured at 550 nm (BioTek, Winooski, VT).
# [2] = tested on: MCF-7; assay: Cell viability MTT assay; assay type: cell-based; conditions: Homo sapiens, MCF7
# Procedure: as §1
structure (smiles),measurement,setting,value
"CC(=O)O[C@@]12CO[C@@H]1C[C@H](O)[C@@]1(C)C(=O)[C@H](O)C3=C(C)[C@@H](OC(=O)[C@H](O)[C@@H](NC(=O)OC(C)(C)C)c4ccccc4)C[C@@](O)([C@@H](OC(=O)c4ccccc4)[C@H]21)C3(C)C [DTX, docetaxel]",IC50,[1],0.052 µg/mL
same,IC50,[2],0.763 µg/mL
